Biological target: T1, TRPM7/ChaK1 kinase domain (purified recombinant ChaK1-cat) (Mus musculus, UniProt Q923J1)
T1 construct: Expression and purification of recombinant ChaK1 kinase domain was performed as described; made in house; host or cells: bacteria
T1 sequence (Q923J1 1592-1822 limits assumed): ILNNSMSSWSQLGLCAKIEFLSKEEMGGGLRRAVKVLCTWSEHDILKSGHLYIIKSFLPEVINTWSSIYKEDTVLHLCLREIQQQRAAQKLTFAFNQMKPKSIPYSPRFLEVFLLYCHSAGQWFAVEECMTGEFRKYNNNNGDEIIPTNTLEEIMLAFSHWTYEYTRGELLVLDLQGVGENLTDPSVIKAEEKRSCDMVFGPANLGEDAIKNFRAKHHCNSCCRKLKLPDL
Assay: ChaK1-cat kinase activity: phosphorylation of myelin basic protein with [γ-33P]ATP, SDS-PAGE and autoradiography
Assay type: biochemical
Experimental: The reaction was performed using purified recombinant ChaK1-cat and myelin basic protein. The samples were analyzed by SDS-PAGE and autoradiography; and
The bands corresponding to phosphorylated myelin basic protein (on the autoradiogram shown in B) were quantified using the Kodak 1D imaging program.
Protein samples were incubated in phosphorylation mixture consisting of 50 mM HEPES-KOH (pH 7.4), 10 mM MgCl2, 4 mM MnCl2, 0.5 mM CaCl2 (unless stated otherwise), 100 μM ATP, and 2 μCi of [γ-^33P]ATP (specific activity of 3000 Ci/mmol) with 0.1 μg of purified recombinant ChaK1. In assays involving annexin 0.5 μg of annexin was used. The reactions were run at 30° C. for 5 min and were terminated by incubation in an ice/water bath and addition of Laemmli sample buffer. Samples were boiled for 5 min and analyzed by SDS-PAGE and autoradiography.
We analyzed the sensitivity of ChaK1 to some known inhibitors of conventional protein kinases.

## CN[C@@H]1C[C@H]2O[C@@](C)([C@@H]1OC)n1c3ccccc3c3c4c(c5c6ccccc6n2c5c31)C(=O)NC4 [staurosporine]
Concentrations up to 0.1 mM (FIG. 6B)
  effect on the kinase activity of ChaK1: does not have any effect
Staurosporine even at the concentration of 100 μM (FIG. 6B)
  inhibitory effect on ChaK1: did not produce any inhibitory effect

## CC(=O)c1c(O)c(C)c(O)c(Cc2c(O)c3c(c(C(=O)/C=C/c4ccccc4)c2O)OC(C)(C)C=C3)c1O [rottlerin]
  IC50: ~35 µM
